Results as given in patent publication US4111955A, “N-Trihalomethanesulfenyl carbamoyloximino di-sulfur heterocyclic compounds” (priority 1976, dated 1978).
Converted amounts (≈) assume the structure as drawn.

How the values were obtained:
[1] = Peroral toxicity to mammals (rat); format: in vivo; conditions: in vivo, po; rat, peroral, Table II; read-out: Rat P.O. LD50
Description: Certain of these compositions were also evaluated to determine their peroral toxicity to mammals. The animal selected for this experiment was the rat. The test results obtained are expressed in terms of the number of milligrams of composition per kilogram of weight of the animal required to achieve a mortality rate of 50 percent (LD50).

[2] = test system: two-spotted mite (Tetranychus urticae Koch); assay: Mite Foliage Spray Test; format: in vivo; design: key to pesticidal activity rating, Mite: A: excellent control; B: partial control; C: no control
Description: (§1) Adults and nymphal stages of the two-spotted mite (Tetranychus urticae Koch), reared on Tendergreen bean plants at 80±5 percent relative humidity, were the test organisms. Infested leaves from a stock culture were placed on the primary leaves of two bean plants 6 to 8 inches in height, growing in a 21/2 inch clay pot. 150-200 Mites, a sufficient number for testing, transferred from the excised leaves to the fresh plants in a period of 24 hours. Following the 24 hour transfer period, the excised leaves were removed from the infested plants. The test compounds were formulated by diluting the stock suspension with water to give a suspension containing 500 parts of test compound per million parts of final formulation. The potted plants (one pot per compound) were placed on a revolving turntable and sprayed with 100-110 milliliters of test compound formulation by use of a DeVilbiss spray gun set at 40 psig. air pressure. This application, which lasted 25 seconds, was sufficient to wet the plants to run-off. As a control, 100-110 milliliters of a water solution containing acetone and emulsifier in the same concentrations as the test compound formulation, but containing no test compound, were also sprayed on infested plants. The sprayed plants were held at 80±5 percent relative humidity for 6 days, after which a mortality count of motile forms was made. Microscopic examination for motile forms was made on the leaves of the test plants. Any individual which was capable of locomotion upon prodding was considered living.
(§2) In these tests the pesticidal activity of the compounds against aphid, mite, Southern Armyworm, Bean Beetle and House fly was rated as follows:
(§3) The LD50 values shown in the above Table II were determined by testing the compositions over an appropriate concentration range obtained by serial dilution of the stock suspension with water. The percent kill was plotted on log-probit graph paper versus parts per million concentration, and the LD50 read from an eye-fitted line drawn through the resultant points.

[3] = test system: Mexican bean beetle (Epilachna varivestis, Muls.); assay: Mexican Bean Beetle Leaf Spray Test; format: in vivo; design: key to pesticidal activity rating, Bean beetle: A: excellent control; B: partial control; C: no control; conditions: leaf spray
Description: Fourth instar larvae of the Mexican bean beetle (Epilachna varivestis, Muls.), reared on Tendergreen bean plants at a temperature of 80°±5° F. and 50±5 percent relative humidity, were the test insects.
The test compounds were formulated by diluting the stock suspension with water to give a suspension containing 500 parts of test compound per million parts of final formulation. Potted Tendergreen bean plants of standard height and age were placed on a revolving turntable and sprayed with 100-110 milliliters of test compound formulation by use of a DeVilbiss spray gun set at 10 psig air pressure. This application, which lasted 25 seconds, was sufficient to wet plants to run-off. As a control, 100-110 milliliters of a water-acetone-emulsifier solution containing no test compound were also sprayed on infested plants. When dry, the paired leaves were separated and each was placed in a 9 centimeter Petri dish lined with moistened filter paper. Five randomly selected larvae were introduced into each dish, and the dishes were closed. The closed dishes were labeled and held at a temperature of 80°±5° F. for 3 days. Although the larvae could easily consume the leaf within 24 to 48 hours, no more food was added. Larvae which were unable to move the length of the body, even upon stimulation, were considered dead.
as §2, §3

[4] = test system: southern armyworm (Prodenia eridania, (Cram.)); assay: Southern Armyworm Leaf Spray Test; format: in vivo; design: key to pesticidal activity rating, Armyworm: A: excellent control; B: partial control; C: no control
Description: Larvae of the southern armyworm (Prodenia eridania, (Cram.)), reared on Tendergreen bean plants at a temperature of 80°±5° F. and a relative humidity of 50±5 percent, constituted the test insects.
The test compounds were formulated by diluting the stock suspension with water to give a suspension containing 500 parts of test compound per million parts of final formulation. Potted Tendergreen bean plants of standard height and age were placed on a revolving turntable and sprayed with 100-110 milliliters of test compound formulation by use of a DeVilbiss spray gun set at 10 psig air pressure. This application, which lasted 25 seconds, was sufficient to wet plants to run-off. As a control, 100-110 milliliters of a water-acetone-emulsifier solution containing no test compound were also sprayed on infested plants. When dry, the paired leaves were separated and each one was placed in a 9 centimeter Petri dish lined with moistened filter paper. Five randomly selected larvae were introduced into each dish and the dishes were closed. The closed dishes were labeled and held at 80°-85° F. for 3 days. Although the larvae could easily consume the whole leaf within 24 hours, no more food was added. Larvae which were unable to move the length of the body, even upon stimulation by prodding, were considered dead. Percent mortality was recorded for various concentration levels.
as §2, §3

[5] = test system: bean aphid (Aphis fabae Scop.); assay: Bean Aphid Foliage Spray Test; format: in vivo; design: key to pesticidal activity rating, Aphid: A: excellent control; B: partial control; C: no control
Description: Adults and nymphal stages of the bean aphid (Aphis fabae Scop.) reared on potted dwarf nasturtium plants at 65°-70° F. and 50-70 percent relative humidity, constituted the test insects. For testing purposes, the number of aphids per pot was standardized to 100-150 by trimming plants containing excess aphids.
The test compounds were formulated by diluting the stock suspension with water to give a suspension containing 500 parts of test compound per million parts of final formulation.
The potted plants (one pot per compound tested) infested with 100-150 aphids, were placed on a revolving turntable and sprayed with 100-110 milliliters of test compound formulation by use of a DeVilbiss spray gun set at 40 psig. air pressure. This application, which lasted 25 seconds, was sufficient to wet the plants to run-off. As a control, 100-110 milliliters of a water-acetone-emulsifier solution containing no test compound were also sprayed on infested plants. After spraying, the pots were placed on their sides on a sheet of white standard mimeograph paper which had been previously ruled to facilitate counting. Temperature and humidity in the test room during the 24 hour holding period were 65°-70° F. and 50-70 percent, respectively. Aphids which fell onto the paper and were unable to remain standing after being uprighted were considered dead. Aphids remaining on the plants were observed closely for movement and those which were unable to move the length of the body upon stimulation by prodding were considered dead. Percent mortality was recorded for various concentration levels.
as §2, §3

mites = assay: Systemic miticidal activity (soil drench of infested bean plants); format: in vivo, Tetranychus urticae Koch; conditions: Tetranychus urticae; systemic, soil drench, value in parentheses, Table II; read-out: Insect Toxicity, LD50, Mite, systemic activity
Description: as §1, §3
Systemic treatments were made by drenching 20 milliliters of the test compound formulation into the soil around the roots of bean plants growing in 21/2 inch clay pots. […]

[6] = test system: house flies (Musca domestica, L.); assay: Fly Bait Test; format: in vivo; design: key to pesticidal activity rating, Housefly: A: excellent control; B: partial control; C: no control
Description: Four to 6 day old adult house flies (Musca domestica, L.), reared according to the specifications of the Chemical Specialities Manufacturing Association (Blue Book, McNair-Dorland Co., N.Y. 1954; pages 243-244, 261) under controlled conditions of 80°±5° F. and 50±5 percent relative humidity, were the test insects. The flies were immobilized by anesthetizing with carbon dioxide and twenty five immobilized individuals, males and females, were transferred to a cage consisting of a standard food strainer about 5 inches in diameter which was inverted over a wrapping-paper-covered surface. The test compounds were formulated by diluting the stock suspension with a 10 percent (by weight) sugar solution to give a suspension containing 500 parts of test compound per million parts of final formulation, by weight. Ten milliliters of the test formulation were added to a souffle cup containing a 1-inch square of an absorbent cotton pad. This bait cup was introduced and centered on the blotting paper under the food strainer prior to admitting the anesthetized flies. The caged flies were allowed to feed on the bait for 24 hours, at a temperature of 80°±5° F. and the relative humidity of 50±5 percent.
as §2, §3

With `CNC(=O)ON=C1CSCCS1` [drawing 3 --NHCH3, reference compound] the LD50 [1] was 15 mg/kg, the “pesticidal activity rating, Mite” value ([2]; 500 parts per million, 6 days) was “A” and the LC50 ([2]; Tetranychus urticae, foliar, Table II, read-out: Insect Toxicity, LD50, Mite) was 6 µg/mL (≈ 29.1 µM). The LC50 ([3]; Epilachna varivestis, 72 h, Table II, read-out: Insect Toxicity, LD50, Mexican Bean beetle) was 52 µg/mL (≈ 252 µM), the “pesticidal activity rating, Bean beetle” value ([3]; 500 parts per million, 3 days) was “A” and the “pesticidal activity rating, Armyworm” value ([4]; 500 parts per million, 3 days) was “A”. For the same molecule, the LC50 ([4]; Spodoptera eridania, 72 h, Table II, read-out: Insect Toxicity, LD50, Armyworm) was 53 µg/mL (≈ 257 µM), the “pesticidal activity rating, Aphid” value ([5]; 500 parts per million, 24 hour) was “A” and the LC50 ([5]; Aphis fabae, foliar, 24 h, Table II, read-out: Insect Toxicity, LD50, Aphid) was 5 µg/mL (≈ 24.2 µM). The LC50 (mites) was 12 µg/mL (≈ 58.2 µM), the “pesticidal activity rating, Housefly” value ([6]; 500 parts per million, 24 hours) was “A” and the LC50 ([6]; Musca domestica, 24 h, Table II, read-out: Insect Toxicity, LD50, House fly) was 1 µg/mL (≈ 4.85 µM).
